Results taken from ChEMBL document CHEMBL3885881, “DrugMatrix”.

Organism: Rattus norvegicus
Experiment: DrugMatrix - Regimen: Daily Repeat
Format: toxicity, organism-based, Sprague-Dawley
Design: regimen Daily Repeat, gender Male, age 6-8 weeks
Conditions: in vivo, po, route oral GAVAGE, vehicle 100 % SALINE; for ABSOLUTE BASOPHIL / ABSOLUTE EOSINOPHIL / ABSOLUTE LYMPHOCYTE / ABSOLUTE MONOCYTE / ABSOLUTE SEGMENTED NEUTROPHIL / BASOPHIL / EOSINOPHIL / ERYTHROCYTE COUNT / HEMATOCRIT / HEMOGLOBIN / LEUKOCYTE COUNT / LYMPHOCYTE / MEAN CORPUSCULAR HEMOGLOBIN / MEAN CORPUSCULAR HEMOGLOBIN CONCENTRATION / MEAN CORPUSCULAR VOLUME / MONOCYTE / NEUTROPHIL / NUCLEATED RED BLOOD CELLS / PLATELET COUNT: tissue Blood; for ALANINE AMINOTRANSFERASE / ALBUMIN / ALKALINE PHOSPHATASE / ASPARTATE AMINOTRANSFERASE / BLOOD UREA NITROGEN / CARBON DIOXIDE / CHLORIDE / CHOLESTEROL / CREATINE PHOSPHOKINASE / CREATININE / GLUCOSE / LACTATE DEHYDROGENASE / LIPASE / PHOSPHORUS / POTASSIUM / SODIUM / TOTAL BILIRUBIN / TOTAL PROTEIN / URIC ACID: tissue Plasma
[1] = 0 mg/kg, 72 h, dose level Control, time 3 day
[2] = 0 mg/kg, 120 h, dose level Control, time 5 day
[3] = 17 mg/kg, 72 h, dose level Low, time 3 day
[4] = 17 mg/kg, 120 h, dose level Low, time 5 day

Structure (SMILES): O=P1(NCCCl)OCCCN1CCCl (configuration not stated) [IFOSFAMIDE]
- ABSOLUTE BASOPHIL [1]: 0 CELLS/uL
- ABSOLUTE EOSINOPHIL [1]: 0 CELLS/uL
- ABSOLUTE LYMPHOCYTE [1]: 8960.83 CELLS/uL
- ABSOLUTE MONOCYTE [1]: 103.5 CELLS/uL
- ABSOLUTE SEGMENTED NEUTROPHIL [1]: 635.67 CELLS/uL
- BASOPHIL [1]: 0%
- EOSINOPHIL [1]: 0%
- ERYTHROCYTE COUNT [1]: 5.09 x10E6/uL
- HEMATOCRIT [1]: 31.8%
- HEMOGLOBIN [1]: 12.42 G/DL
- LEUKOCYTE COUNT [1]: 9.7 x10E3/uL
- LYMPHOCYTE [1]: 92.33%
- MEAN CORPUSCULAR HEMOGLOBIN [1]: 24.4 pg
- MEAN CORPUSCULAR HEMOGLOBIN CONCENTRATION [1]: 39.07 G/DL
- MEAN CORPUSCULAR VOLUME [1]: 62.47 fL
- MONOCYTE [1]: 1%
- NEUTROPHIL [1]: 6.67%
- NUCLEATED RED BLOOD CELLS [1]: 0 /100WBC
- PLATELET COUNT [1]: 466.5 x10E3/uL
- ALANINE AMINOTRANSFERASE [1]: 83.33 u/L
- ALBUMIN [1]: 4.33 G/DL
- ALKALINE PHOSPHATASE [1]: 340.5 u/L
- ASPARTATE AMINOTRANSFERASE [1]: 189.83 u/L
- BLOOD UREA NITROGEN [1]: 15.83 mg/dL
- CARBON DIOXIDE [1]: 38 mmol/L
- CHLORIDE [1]: 96.83 MEQ/L
- CHOLESTEROL [1]: 72.5 mg/dL
- CREATINE PHOSPHOKINASE [1]: 370.67 u/L
- CREATININE [1]: 0.28 mg/dL
- GLUCOSE [1]: 182.83 mg/dL
- LACTATE DEHYDROGENASE [1]: 513.5 u/L
- LIPASE [1]: 9.83 u/L
- PHOSPHORUS [1]: 11.32 mg/dL
- POTASSIUM [1]: 6.32 MEQ/L
- SODIUM [1]: 145.12 MEQ/L
- TOTAL BILIRUBIN [1]: 0.2 mg/dL
- TOTAL PROTEIN [1]: 6.4 G/DL
- URIC ACID [1]: 2.03 mg/dL
- ABSOLUTE BASOPHIL [2]: 0 CELLS/uL
- ABSOLUTE EOSINOPHIL [2]: 43.83 CELLS/uL
- ABSOLUTE LYMPHOCYTE [2]: 7316.67 CELLS/uL
- ABSOLUTE MONOCYTE [2]: 87.33 CELLS/uL
- ABSOLUTE SEGMENTED NEUTROPHIL [2]: 418.83 CELLS/uL
- BASOPHIL [2]: 0%
- EOSINOPHIL [2]: 0.33%
- ERYTHROCYTE COUNT [2]: 4.77 x10E6/uL
- HEMATOCRIT [2]: 29.93%
- HEMOGLOBIN [2]: 11.48 G/DL
- LEUKOCYTE COUNT [2]: 7.87 x10E3/uL
- LYMPHOCYTE [2]: 93.5%
- MEAN CORPUSCULAR HEMOGLOBIN [2]: 24.17 pg
- MEAN CORPUSCULAR HEMOGLOBIN CONCENTRATION [2]: 38.57 G/DL
- MEAN CORPUSCULAR VOLUME [2]: 62.68 fL
- MONOCYTE [2]: 1%
- NEUTROPHIL [2]: 5.17%
- NUCLEATED RED BLOOD CELLS [2]: 0 /100WBC
- PLATELET COUNT [2]: 377.67 x10E3/uL
- ALANINE AMINOTRANSFERASE [2]: 89 u/L
- ALBUMIN [2]: 4.42 G/DL
- ALKALINE PHOSPHATASE [2]: 275.17 u/L
- ASPARTATE AMINOTRANSFERASE [2]: 204.17 u/L
- BLOOD UREA NITROGEN [2]: 15.33 mg/dL
- CARBON DIOXIDE [2]: 36.83 mmol/L
- CHLORIDE [2]: 94.67 MEQ/L
- CHOLESTEROL [2]: 92 mg/dL
- CREATINE PHOSPHOKINASE [2]: 514.5 u/L
- CREATININE [2]: 0.24 mg/dL
- GLUCOSE [2]: 184.17 mg/dL
- LACTATE DEHYDROGENASE [2]: 648.67 u/L
- LIPASE [2]: 10 u/L
- PHOSPHORUS [2]: 12.33 mg/dL
- POTASSIUM [2]: 6.51 MEQ/L
- SODIUM [2]: 144.63 MEQ/L
- TOTAL BILIRUBIN [2]: 0.18 mg/dL
- TOTAL PROTEIN [2]: 6.7 G/DL
- URIC ACID [2]: 2.33 mg/dL
- ABSOLUTE BASOPHIL [3]: 0 CELLS/uL
- ABSOLUTE EOSINOPHIL [3]: 0 CELLS/uL
- ABSOLUTE LYMPHOCYTE [3]: 7711.33 CELLS/uL
- ABSOLUTE MONOCYTE [3]: 107 CELLS/uL
- ABSOLUTE SEGMENTED NEUTROPHIL [3]: 448.33 CELLS/uL
- BASOPHIL [3]: 0%
- EOSINOPHIL [3]: 0%
- ERYTHROCYTE COUNT [3]: 6.17 x10E6/uL
- HEMATOCRIT [3]: 39.13%
- HEMOGLOBIN [3]: 15.1 G/DL
- LEUKOCYTE COUNT [3]: 8.27 x10E3/uL
- LYMPHOCYTE [3]: 93.33%
- MEAN CORPUSCULAR HEMOGLOBIN [3]: 24.47 pg
- MEAN CORPUSCULAR HEMOGLOBIN CONCENTRATION [3]: 38.6 G/DL
- MEAN CORPUSCULAR VOLUME [3]: 63.47 fL
- MONOCYTE [3]: 1.33%
- NEUTROPHIL [3]: 5.33%
- NUCLEATED RED BLOOD CELLS [3]: 0 /100WBC
- PLATELET COUNT [3]: 648 x10E3/uL
- ALANINE AMINOTRANSFERASE [3]: 47.33 u/L
- ALBUMIN [3]: 4.43 G/DL
- ALKALINE PHOSPHATASE [3]: 256.67 u/L
- ASPARTATE AMINOTRANSFERASE [3]: 80.33 u/L
- BLOOD UREA NITROGEN [3]: 15 mg/dL
- CARBON DIOXIDE [3]: 38.67 mmol/L
- CHLORIDE [3]: 95.67 MEQ/L
- CHOLESTEROL [3]: 85 mg/dL
- CREATINE PHOSPHOKINASE [3]: 300 u/L
- CREATININE [3]: 0.31 mg/dL
- GLUCOSE [3]: 148.67 mg/dL
- LACTATE DEHYDROGENASE [3]: 171.67 u/L
- LIPASE [3]: 11.33 u/L
- PHOSPHORUS [3]: 11.57 mg/dL
- POTASSIUM [3]: 6.47 MEQ/L
- SODIUM [3]: 144.97 MEQ/L
- TOTAL BILIRUBIN [3]: 0.2 mg/dL
- TOTAL PROTEIN [3]: 6.5 G/DL
- URIC ACID [3]: 1.23 mg/dL
- ABSOLUTE BASOPHIL [4]: 0 CELLS/uL
- ABSOLUTE EOSINOPHIL [4]: 0 CELLS/uL
- ABSOLUTE LYMPHOCYTE [4]: 4979.67 CELLS/uL
- ABSOLUTE MONOCYTE [4]: 84.33 CELLS/uL
- ABSOLUTE SEGMENTED NEUTROPHIL [4]: 269.33 CELLS/uL
- BASOPHIL [4]: 0%
- EOSINOPHIL [4]: 0%
- ERYTHROCYTE COUNT [4]: 5.71 x10E6/uL
- HEMATOCRIT [4]: 35.77%
- HEMOGLOBIN [4]: 13.23 G/DL
- LEUKOCYTE COUNT [4]: 5.33 x10E3/uL
- LYMPHOCYTE [4]: 93%
- MEAN CORPUSCULAR HEMOGLOBIN [4]: 23.13 pg
- MEAN CORPUSCULAR HEMOGLOBIN CONCENTRATION [4]: 37.2 G/DL
- MEAN CORPUSCULAR VOLUME [4]: 62.3 fL
- MONOCYTE [4]: 1.67%
- NEUTROPHIL [4]: 5.33%
- NUCLEATED RED BLOOD CELLS [4]: 0 /100WBC
- PLATELET COUNT [4]: 184 x10E3/uL
- ALANINE AMINOTRANSFERASE [4]: 92.33 u/L
- ALBUMIN [4]: 4.3 G/DL
- ALKALINE PHOSPHATASE [4]: 295.33 u/L
- ASPARTATE AMINOTRANSFERASE [4]: 158.33 u/L
- BLOOD UREA NITROGEN [4]: 17 mg/dL
- CARBON DIOXIDE [4]: 38 mmol/L
- CHLORIDE [4]: 94 MEQ/L
- CHOLESTEROL [4]: 79.67 mg/dL
- CREATINE PHOSPHOKINASE [4]: 366 u/L
- CREATININE [4]: 0.26 mg/dL
- GLUCOSE [4]: 149.67 mg/dL
- LACTATE DEHYDROGENASE [4]: 519 u/L
- LIPASE [4]: 9.67 u/L
- PHOSPHORUS [4]: 12.83 mg/dL
- POTASSIUM [4]: 7.12 MEQ/L
- SODIUM [4]: 144.83 MEQ/L
- TOTAL BILIRUBIN [4]: 0.17 mg/dL
- TOTAL PROTEIN [4]: 6.57 G/DL
- URIC ACID [4]: 1.43 mg/dL
